From patent publication US12643871B2, “Aryl formamide compound containing chiral sulfur oxide or salt thereof, preparation method, herbicidal composition and use thereof” (Qingdao Kingagroot Chemical Compound Co., Ltd., priority 2019, dated 2026)

Assays:
Type in all cases: in vivo
Digitaria sanguinalis [1] = test: Comparison experiment (post-emergence) against racemate / S configuration; settings: 30 g/ha, 3-4 weeks after sowing, 4-5 leaf-stage of weed, 25DAA; for pest or weed control at 30 g/ha: Digitaria sanguinalis, post-emergence, 600 h
Leptochloa chinensis = test: as above; settings: 60 g/ha; 3-4 weeks after sowing, 4-5 leaf-stage of weed, 25DAA
Source text: (§1) The above growth control rates are fresh weight control rates.
(§2) Experiment on weeding effect in post-emergence stage: monocotyledonous and dicotyledonous weed seeds (Descurainia sophia, Capsella bursa-pastoris, Galium aparine, Stellaria media, Lithospermum arvense, Rorippa indica, Alopecurus aequalis, Beckmannia syzigachne, Sclerochloa dura, Phleum paniculatum, Bromus japonicus, Aegilops tauschii, Phalaris arundinacea, Amaranthus retroflexus, Chenopodiaceae, Commelina communis, Sonchus arvensis, convolvulus arvensis, Cirsium setosum, Solanum nigrum, Acalypha australis, Digitaria sanguinalis, Echinochloa crusgalli, Setaria viridis, Setaria glauca, Leptochloa chinensis, Monochoria vaginalis, Sagittaria trifolia, Scirpus juncoides, Cyperus rotundus, Cyperus iria, Cyperus difformis, Fimbristylis, Portulaca oleracea, Xanthium sibiricum, Pharbitis nil) and major crop seeds (wheat, corn, rice, soybean, cotton, oilseed rape, millet, sorghum, potato, sesame, ricinus) were placed in plastic pots filled with soil, then covered with 0.5-2 cm of soil, allowed to grow in a good greenhouse environment. […] The tested compounds of the present invention were respectively dissolved in acetone, then added with Tween 80 and 1.5 liter/ha of emulsifiable concentrate of methyl oleate as synergist, diluted with a certain amount of water to obtain a solution with a certain concentration, and sprayed with a spray tower onto the plants. […]
(§3) If there is no clear marker, the post-seedling test conditions are the same as above, and the experimental results are shown in Tables 4-7.

Green Setaria viridis = test: as above; settings: 60 g/ha; 3-4 weeks after sowing, 4-5 leaf-stage of weed, 25DAA
Source text: as §1, §2, §3

Abutilon theophrasti [2] = test: as above; settings: 30 g/ha; 3-4 weeks after sowing, 4-5 leaf-stage of weed, 25DAA
Source text: as §1, §2, §3

Setaria viridis = test: Weeding effect in post-emergence stage; settings: 250 g/ha; 2 leaf stage; 15 days after application; fresh weight control rate
Procedure, shortened: (§4)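 Reported levels reflect fresh weight growth control rate banded 0 (<5%) through 5 (>85%), averaged over three repetitions. Treatment: foliar spray of 2-leaf-stage greenhouse plants at 15 to 500 g/ha, with 1.5 liter/ha methyl oleate synergist; assessment 15 days after application.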

Echinochloa crusgali = test: Weeding effect in post-emergence stage; settings: 250 g/ha; 2 leaf stage; 15 days after application; fresh weight control rate
Procedure, shortened: as §4

Amaranthus retroflexus = test: Weeding effect in post-emergence stage; settings: 250 g/ha; 2 leaf stage; 15 days after application; fresh weight control rate
Procedure, shortened: as §4

Abutilon theophrasti [3] = test: Weeding effect in post-emergence stage; settings: 250 g/ha; 2 leaf stage; 15 days after application; fresh weight control rate
Procedure, shortened: as §4

Digitaria sanguinalis [4] = test: Weeding effect in post-emergence stage; settings: 250 g/ha; 2 leaf stage; 15 days after application; fresh weight control rate
Procedure, shortened: as §4

[5] = system: key weeds such as Digitaria sanguinalis, Leptochloa chinensis; test: Comparison experiment (post-emergence, Tables 4-7), herbicidal activity on weeds not listed separately; settings: dose of 125, 60, 30, 15 g/ha
Procedure, shortened: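 Readout: fresh weight control rate, counted 15 days post-spray and averaged over three replicates. Pot-grown plants (seeds under 0.5-2 cm soil) were treated at the 2 leaf stage, two weeks after sowing, with 15–500 g/ha compound plus methyl oleate synergist at 1.5 liter/ha.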

rice and other crops = test: Comparison experiment (post-emergence, Tables 4-7), crop safety; settings: dose of 125, 60, 30, 15 g/ha
Source text: as §1
Experiment on weeding effect in post-emergence stage: monocotyledonous and dicotyledonous weed seeds (Descurainia sophia, Capsella bursa-pastoris, Galium aparine, Stellaria media, Lithospermum arvense, Rorippa indica, Alopecurus aequalis, Beckmannia syzigachne, Sclerochloa dura, Phleum paniculatum, Bromus japonicus, Aegilops tauschii, Phalaris arundinacea, Amaranthus retroflexus, Chenopodiaceae, Commelina communis, Sonchus arvensis, convolvulus arvensis, Cirsium setosum, Solanum nigrum, Acalypha australis, Digitaria sanguinalis, Echinochloa crusgalli, Setaria viridis, Setaria glauca, Leptochloa chinensis, Monochoria vaginalis, Sagittaria trifolia, Scirpus juncoides, Cyperus rotundus, Cyperus iria, Cyperus difformis, Fimbristylis, Portulaca oleracea, Xanthium sibiricum, Pharbitis nil) and major crop seeds (wheat, corn, rice, soybean, cotton, oilseed rape, millet, sorghum, potato, sesame, ricinus) were placed in plastic pots filled with soil, then covered with 0.5-2 cm of soil, allowed to grow in a good greenhouse environment. After 2 weeks of sowing, the test plants were treated in the 2 leaf stage. The tested compounds of the present invention were respectively dissolved in acetone, then added with Tween 80 and 1.5 liter/ha of emulsifiable concentrate of methyl oleate as synergist, diluted with a certain amount of water to obtain a solution with a certain concentration, and sprayed with a spray tower onto the plants. After the application, the plants were cultured for 15 days in the greenhouse, and then the experimental results of the weeding were counted. The doses of the used compounds were 500, 250, 125, 60, 30, 15 g/ha, and the averages were obtained by repeating for three times.
as §3

SMILES | pest or weed control at 30 g/ha (Digitaria sanguinalis [1]) [%] | Results of comparison experiment, Leptochloa chinensis (60 g/ha) (Leptochloa chinensis) [%] | Results of comparison experiment, Green Setaria viridis (60 g/ha) (Green Setaria viridis) [%] | Results of comparison experiment, Abutilon theophrasti (30 g/ha) (Abutilon theophrasti [2]) [%] | Results of comparison experiment, Digitaria sanguinalis (30 g/ha) (Digitaria sanguinalis [1]) [%] | weeding effect in post-emergence stage, activity level (growth control rate), Setaria viridis (Setaria viridis) | weeding effect in post-emergence stage, activity level (growth control rate), Echinochloa crusgali (Echinochloa crusgali) | weeding effect in post-emergence stage, activity level (growth control rate), Amaranthus retroflexus (Amaranthus retroflexus) | weeding effect in post-emergence stage, activity level (growth control rate), Abutilon theophrasti (Abutilon theophrasti [3]) | weeding effect in post-emergence stage, activity level (growth control rate), Digitaria sanguinalis (Digitaria sanguinalis [4]) | activity to key weeds such as Digitaria sanguinalis, Leptochloa chinensis compared with the corresponding racemate or S configuration [5] | safety to rice and other crops compared with the corresponding racemate or S configuration (rice and other crops)
Cc1nnc(NC(=O)c2ccc(C(F)F)c([S+](C)[O-])c2F)o1 (stereo not shown) [Control Compound E] | 5 | 10 | 25 | 60 | – | – | – | – | – | – | – | –
Cc1nnc(NC(=O)c2ccc(C(F)(F)F)c([S+](C)[O-])c2F)o1 (single isomer, unassigned) [Control Compound D] | – | 0 | 10 | 50 | 0 | – | – | – | – | – | – | –
Cc1nnc(NC(=O)c2ccc(C(F)(F)F)c([S+](C)[O-])c2F)o1 (single isomer, unassigned) [Control Compound C] | 0 | 0 | 20 | 60 | – | – | – | – | – | – | – | –
Cc1nnc(NC(=O)c2ccc(C(F)(F)F)c([S@+]([O-])CCC3CC3)c2F)o1 [Compound 17] | – | – | – | – | – | 5 (Level 5: growth control rate is above 85%) | 5 (Level 5: growth control rate is above 85%) | 5 (Level 5: growth control rate is above 85%) | 5 (Level 5: growth control rate is above 85%) | 5 (Level 5: growth control rate is above 85%) | better activity | higher safety
C=CCC[S@@+]([O-])c1c(C(F)(F)F)ccc(C(=O)Nc2nnc(C)o2)c1F [Compound 20] | – | – | – | – | – | 5 (Level 5: growth control rate is above 85%) | 5 (Level 5: growth control rate is above 85%) | 5 (Level 5: growth control rate is above 85%) | 5 (Level 5: growth control rate is above 85%) | 5 (Level 5: growth control rate is above 85%) | better activity | higher safety
Cc1nnc(NC(=O)c2ccc(C(F)(F)F)c([S@+]([O-])CC=C(Cl)Cl)c2F)o1 [Compound 40] | – | – | – | – | – | 5 (Level 5: growth control rate is above 85%) | 5 (Level 5: growth control rate is above 85%) | 5 (Level 5: growth control rate is above 85%) | 5 (Level 5: growth control rate is above 85%) | 5 (Level 5: growth control rate is above 85%) | better activity | higher safety
Cc1nnc(NC(=O)c2ccc(C(F)(F)F)c([S@@+]([O-])C[S+](C)[O-])c2F)o1 (stereo partly shown) [Compound 205] | – | – | – | – | – | 5 (Level 5: growth control rate is above 85%) | 5 (Level 5: growth control rate is above 85%) | 5 (Level 5: growth control rate is above 85%) | 5 (Level 5: growth control rate is above 85%) | 5 (Level 5: growth control rate is above 85%) | better activity | higher safety
Cc1nnc(NC(=O)c2ccc(C(F)(F)F)c([S@+]([O-])CCC#N)c2F)o1 [Compound 52] | – | – | – | – | – | 5 (Level 5: growth control rate is above 85%) | 5 (Level 5: growth control rate is above 85%) | 5 (Level 5: growth control rate is above 85%) | 5 (Level 5: growth control rate is above 85%) | 5 (Level 5: growth control rate is above 85%) | better activity | higher safety
CCCCC[S@@+]([O-])c1c(C(F)(F)F)ccc(C(=O)Nc2nnc(C)o2)c1F [Compound 8] | – | – | – | – | – | 4 (Level 4: growth control rate is greater than or equal to 60% and less than 85%) | 5 (Level 5: growth control rate is above 85%) | 5 (Level 5: growth control rate is above 85%) | 5 (Level 5: growth control rate is above 85%) | 4 (Level 4: growth control rate is greater than or equal to 60% and less than 85%) | better activity | higher safety
CNCC[S@@+]([O-])c1c(C(F)(F)F)ccc(C(=O)Nc2nnc(C)o2)c1F [Compound 67] | – | – | – | – | – | 5 (Level 5: growth control rate is above 85%) | 5 (Level 5: growth control rate is above 85%) | 5 (Level 5: growth control rate is above 85%) | 5 (Level 5: growth control rate is above 85%) | 5 (Level 5: growth control rate is above 85%) | better activity | higher safety
